Assay results as given in patent publication US9375402B2, “Oral formulations of kinase inhibitors” (VERASTEM, INC., priority 2010, dated 2016).

Test: Solubility of SR2516 and SR3406 in selected oils
Assay type: physicochemical
Settings: shaken overnight at 25 deg C, filtrate, HPLC
Experimental: This purpose of this study was to select an oil system as the vehicle base for the self-emosifying formulation based on the solubility
Procedure • 1. Add 25 mg of each API in 2 mL eppendoff vial. Record weight. • 2. Weigh out each excipient. Record weight. • 3. Beadbeater 100 sec to mix well. If all dissolved, add additional 5-10 mg each time until excess solid is present. • 4. Use a platform shaker to shake all vials overnight at 25 deg C. • 5. Observe for clarity, presence and relative amount of precipitates. • 6. Filter using spin-X (0.22 um). • 7. Dilute the filtrate to normal concentration for HPLC analysis for drug concentration and purity %. • 8. Keep the filtrate at room temperature and observe for ppt at longer time point(s) if needed. Results Analysis on Filtrate Samples

Solubility (in Capmul MCM (F2)) [mg/g] | Solubility (in Castor oil (F4)) [mg/g] | Solubility (in Labrafil M 1944 CS (F3)) [mg/g] | Solubility (in Miglyol 812 (F1)) [mg/g] | Solubility (in Oleic acid (F5)) [mg/g] | SMILES
8.4 | 1.5 | 2.2 | 0.3 | 5.8 | CNC(=O)c1ccccc1Nc1cc(Nc2ccc(N3CCOCC3)cc2OC)ncc1C(F)(F)F [SR-2516]
13.6 | 4.9 | 1.0 | 0.3 | 0.4 | CNC(=O)c1cc(F)ccc1Nc1cc(Nc2ccc(N3CCOCC3)cc2OC)ncc1C(F)(F)F [SR-3406]
